Article PMC3329801 (Nature Chemical Biology, 2011)

System: influenza virus NS1 protein levels
Assay type: cell-based

Row | SMILES | viral protein levels in REDD1−/− cells (autophagy inhibitor treatment, Fig. S13) | viral protein levels in REDD1+/+ and REDD1−/− cells | influenza virus NS1 protein levels (Fig. S7)
1 | CCN(CC)CCCC(C)Nc1ccnc2cc(Cl)ccc12 (stereo not drawn) [chloroquine] | did not affect viral protein levels |  | 
2 | CO[C@H]1C[C@@H]2CC[C@@H](C)[C@@](O)(O2)C(=O)C(=O)N2CCCC[C@H]2C(=O)O[C@H]([C@H](C)C[C@@H]2CC[C@@H](O)[C@H](OC)C2)CC(=O)[C@H](C)/C=C(\C)[C@@H](O)[C@@H](OC)C(=O)[C@H](C)C[C@H](C)/C=C/C=C/C=C/1C [rapamycin] |  | down-regulated viral protein levels | reduced influenza virus NS1 protein levels
